Reference: patent US10000641B2, “Method and composition for preventing corrosion of metal surfaces” (Ecolab USA Inc., priority 2010, dated 2018)

What was measured:
[1] = Linear Polarisation Resistance (LPR) Bubble test, corrosion rate
Procedure: The corrosion inhibition (CI) performance of compounds and compositions of the invention and the performance of comparative examples was tested by means of Linear Polarisation Resistance (LPR) Bubble test measurements.
In general, the LPR Bubble test method uses a test cell, typically made from glass, which is fitted with a probe containing electrodes which are connected to an electrochemical measurement system and associated software. The cell is also fitted with a gas inlet and frit to allow constant purging with CO2 gas. The cell can be loaded with test fluids, typically brine or a combination of brine and a suitable oil phase. The liquids may be stirred, typically at low or moderate speeds, or may be static. The instantaneous rate of corrosion can be measured throughout the experiment by means of the electrochemical probe which extends into the water phase. Other experiments, such as a cyclic sweep, or cyclic polarisation measurement, can also be performed.
In our experiments, the LPR cells were loaded with 95 parts of water (brine) and 5 parts kerosene. The test temperature was 50° C. in all experiments, while details of the water phase pH values relevant to each water composition are given in this Table. The cells were continuously purged with CO2 gas and a stirring speed of 100 rpm was used.
To perform the test, the electrode was allowed to pre-corrode for 2 hours, after which a test corrosion inhibitor composition was added to the kerosene phase. The test was then continued for a total of approximately 14 hours.

Skeletonema costatum = assay: ISO 10253 1998 water quality marine algal growth inhibition test; format: cell-based
Procedure: Toxicity (EC50) was measured by a standard test: ISO 10253 1998 water quality—marine algal growth inhibition test with Skeletonema costatum.

[2] = standard testing procedures for biodegradability
[3] = Brine B, 50° C., 10 ppm test chemical with sodium thiosulfate
[4] = Table 5, Brine A, 10 ppm, blends also contain ethoxylated fatty acid ester and Na thiosulfate

Na Oleyl amphoacetate
% Inhibition ([1]; Brine A, 50° C., 10 ppm test chemical with sodium thiosulfate): 96.81%
Final corrosion rate ([1]; Brine A, 50° C., 10 ppm test chemical with sodium thiosulfate, 95:5 brine:kerosene, CO2 purge): 0.12 mmpy
% Inhibition [1, 3]: >99.99%
Final corrosion rate [1, 3]: 0.00014 mmpy
Algae toxicity (EC50) (Skeletonema costatum): 2.0 µg/mL

CCCCCCCCCC[N+](C)(C)CCCCCCCCCC [Mixture E]
% Inhibition [1, 4]: 99.8%
Final corrosion rate [1, 4]: 0.009 mmpy

O=C([O-])c1ccccc1.[Na+] [sodium benzoate]
biodegraded ([2]; after 7 days): about 85.5%
biodegraded ([2]; after 14 days): about 95%
biodegraded ([2]; after 28 days): 100%
